According to patent US20130331326A1, “METHOD OF INDUCING HEMATOPOIETIC RECONSTRUCTION” (DUKE UNIVERSITY, priority 2011, published 2013):
Entries after “also recorded” stand apart in the source; their conditions may differ.

Assays:
BM KSL cells [1] = experiment: BrdU incorporation in BM KSL cells in vivo after 700 cGy TBI; design: species or system mouse; conditions: day +7 following 700 cGy TBI, EGF daily x 7 days, vs saline
Description: Cell proliferation was measured in C57B16 mice exposed to 700 cGy TBI and administered 5-bromo-2-deoxyridine (BrdU, BD) in drinking water from the day of irradiation until day +7. BM cells were labeled with anti-cKit PE, anti-scal PE-Cy7, anti-lineage APC, and anti-BrdU FITC. Incorporation of BrdU was analyzed by flow cytometry according to the manufacturer's staining protocol (BD).

CD45+MECA- BM cells = experiment: Annexin+ BM hematopoietic cells in mice after 700 cGy TBI; type: in vivo, mouse; conditions: systemic EGF x 7 days, day +7, vs saline
Description: FIGS. 7A-7G. […] (FIG. 7B) Mean percentage of Annexin^+ Tie2Cre;Bak1^−/−;Bax^Fl/−. […] Non-irradiated BM KSL cells reside predominantly in the G0 (white). G1 light gray, G2/S/M=dark gray. *P=0.002 vs TSF for G0 and ̂P=0.002 vs TSF for G2/S/M, respectively (means±SEM, n=3-5/group). […] The majority of non-irradiated cells were in G0 (white). […] The Mann-Whitney test was utilized for all comparisons unless otherwise noted.
(§1) Cell apoptosis and necrosis were analyzed by flow cytometry according to manufacturer's protocols with Annexin V-FITC and 7-AAD staining (BD, San Jose, Calif.). […] Cells were fixed and permeabilized with Fix Buffer I and Perm Buffer III (BD), and then stained with mouse anti-phospho-AKT-S473 PE (BD) or isotype control. Cell cycle analysis was performed by flow cytometric analysis modified from previous reports (Jordan et al, Exp. Hematol. 24:1347-1355 (1996), Chute et al, Hum. Gene Ther. 11:2515-2528 (2000), Sungartz et al, Blood 119:1308-1309 (2012)). Briefly, cells were fixed and permeabilized with 0.25% Saponin (Calbiochem, La Jolla, Calif.), 2.5% paraformaldehyde, 2% FBS in 1×PBS, and then labeled with Ki67-FITC and 7-AAD (BD). BM lin^− cells from VavCre;EGFR^+/+ or VavCre;EGER^fl/fl were cultured with TSF or TSF+10 μM erlotinib, or TSF following 300 cGy for 72 hours, and then collected for total cell counts and CFCs analysis.

[2] = system: BM hematopoietic stem and progenitor cells; experiment: Hematopoietic regeneration in C57B16 mice after 700 cGy TBI (progenitor assays, competitive repopulation); type: in vivo, mouse
Description: BM cells were collected into PBS (Cellgro, Manassas, Va.) with 10% fetal bovine serum (Hyclone, Logan, Utah) and 1% penicillin/streptomycin (GIBCO, Grand Island, N.Y.). Viable BM cells were quantified using Trypan Blue Stain (Lonza, Basel, Switzerland) to exclude apoptotic and dead cells. Cells were then incubated with anti-c-kit, anti-Sca-1, anti-lineage cocktail, anti-CD41, anti-CD48, and anti-CD150 antibodies (Biolegend and eBiosciences, San Diego, Calif.; BD, San Jose, Calif.) to measure ckit^+sca-1^+lin^− (KSL) progenitor cells or CD150′CD41^−CD48^−KSL (SLAM/KSL) as previously described (Kiel et al, Cell 121:1109-1121 (2005)). Colony forming cells (CFCs) and CFU-S12 assays were also performed to measure functional hematopoietic stem/progenitor cell content. For CFCs, either whole BM or cultured lineage−cells, or KSL cells were plated onto methylcellulose (StemCell Technologies, Vancouver, BC, Canada), and colonies were scored on day 14. 1×10^5 BM or 2×10^5 cells were collected from donor mice and injected via tail vein into recipient C57B16 mice that had been given 950 cGy TBI. At day +12 post-injection, spleens from recipient mice were harvested and stained with Bouin's fixative solution (Ricca Chemical Company, Arlington, Tex.), and colonies were counted as previously described (Till and MeRadiat. Res. 14:213-222 (1961)). Complete blood counts were performed on a HemaVet 950 (Drew Scientific, Dallas, Tex.).
Competitive repopulation assays were also performed using donor C57B16 mice (CD45.2^+) that had been irradiated with 700 cGy TBI and gavaged daily with 10 μg/G erlotinib (Genentech, San Francisco, Calif.) or 150 μl water beginning on day 0 and continued through day +14. Donor BM cells were injected via tail vein into recipient B6.SJL mice (CD45.1^+) at a dose of 5×10^5 cells with a competing dose of host 1×10^5 BM MNCs. Tie2Cre;Bak1^−/−;Bax^FL/− mice were gavaged daily with 10 μg/G erlotinib or water starting day −3 and given 300 cGy TBI on day 0. Erlotinib administration continued until the timepoint of donor BM cell collection and analysis. Tie2Cre;Bak1^−/−;Bax^FL/− BM cells were injected via tail vein into recipient CD45.1^+ mice at a cell dose of 3×10^5 cells with a competing dose of host 1×10^5 CD45.1^+ cells. Multilineage hematopoietic reconstitution was measured in the PB of recipient mice by flow cytometry at 4, 8, and 12 weeks post-transplant. For survival studies with erlotinib administration, C57B16 mice were exposed to 700 cGy and then given 10 μg/G erlotinib or water starting day −3 and continuing daily through day +14.
Ten micrometer sections were cut using they CryoJane tape system (Instrumedics Inc, Hackensack, N.J., USA). Femurs were stained with hematoxylin and eosin or anti-mouse endothelial cell antibody (MECA-32) as previously described (Salter et al, Blood 113:2104-2107 (2009)) to assess BM cellularity and the BM vasculature after irradiation. Images were obtained using an Axiovert 200 microscope (Carl Zeiss Microscopy, Thornwood, N.Y.) or a Leica SP5 confocal microscope (Leica Microsystems Inc, Buffalo Grove, Ill.). Adobe Photoshop software (version 9.0.2, Adobe Systems, San JoSe, Calif.) was used to quantify positive signal as a measure of spatial distribution in the fields (Lehr et al, J. Histochem. Cytochem. 45:1559-1565 (1997), Lehr et al, J. Histochem. Cytochem. 47:119-126 (1999)).

BM KSL cells [3] = experiment: Culture of non-irradiated BM KSL cells with TSF with and without EGF; type: cell-based, mouse; conditions: TSF + 20 ng/ml EGF, 7 days, vs cytokines alone
BM KSL cells [4] = experiment: Cell cycle analysis (Ki67/7-AAD) of irradiated BM KSL cells; type: cell-based, mouse
Description: as §1

[5] = 700 cGy TBI, EGF 0.5 ug/G IP daily x 7 days, day +7
[6] = 300 cGy, cytokines + EGF, 72 hours of culture

“EGF: epidermal growth factor; recombinant EGF (R&D Systems)” was tested, and the “BrdU incorporation in BM KSL cells” value (BM KSL cells [1]) was “significantly increased; also recorded: marked increase”, the “decreased Annexin+ BM hematopoietic cells” value (CD45+MECA- BM cells) was 4 fold and the “increased BM KSL progenitor cells vs saline” value [2, 5] was 6 fold. The “increased BM cells vs saline” value [2, 5] was 2 fold, the “increased CFCs vs saline” value [2, 5] was 7 fold and the “increased CFU-S12 vs saline” value [2, 5] was 8 fold. The BM cellularity ([2]; 700 cGy TBI, EGF daily x 7 days, day +7) was “preserved BM cellularity; also recorded: largely preserved”, the “BM HSC content by competitive repopulation assay” value ([2]; 700 cGy TBI, EGF x 7 days, BM at day +7, vs saline) was “significantly increased” and the “multilineage reconstitution of myeloid cells, B cells and T cells in recipients” value ([2]; BM from irradiated EGF-treated mice, 12 weeks post-transplant, vs saline) was “increased multilineage reconstitution”. The “repopulating cell content (donor stem cell engraftment in recipients)” value ([2]; Example 1, BM at day +7 or day +14 following 700 cGy TBI, EGF vs saline) was “significantly higher repopulating cell content”, the “recovery of bone marrow stem and progenitor cells” value ([2]; Example 1, recombinant EGF via intraperitoneal injection into irradiated wild type mice, vs controls) was “marked acceleration” and the “engraftment in secondary transplant recipients at 12 weeks” value ([2]; donor BM collected at day +7 following TBI, data not shown) was “no significant engraftment”. The “donor cell repopulation in secondary transplant recipients at 12 weeks” value ([2]; donor BM collected at day +14 following TBI from EGF-treated mice, vs saline) was “significantly increased; also recorded: markedly increased donor cell repopulation”, the “expansion of BM KSL cells and CFU-S12” value (BM KSL cells [3]) was “increased significantly; also recorded: significant expansion” and the “cycling of BM KSL cells from Tie2Cre;Bak1-/-;BaxFl/- mice” value (BM KSL cells [4]; 300 cGy in vitro, TSF + 20 ng/ml EGF, 72 hours, vs TSF) was “significantly decreased G0 cells and increased G2/S/M cells; also recorded: significantly increased the cycling”. For the same substance, the “KSL cells in G1” value (BM KSL cells [4]; [6]) was 51%, the “KSL cells in G2/S/M phase” value (BM KSL cells [4]; [6]) was 31% and the “KSL cells remaining in G0” value (BM KSL cells [4]; [6]) was 17%.
